# From patent US20060154903A1, “Betulinol derivatives as anti-cancer agents” (priority 2004, published 2006)
# Like-named read-outs stand apart in the source and are kept apart here.
# Key:
# [1] = tested on: carcinoma cell line CO-115 of the large intestine; settings: cytotoxic activity; cited from earlier work
# [2] = tested on: human prostate cancer LNCaP cell line; assay: MTT cytotoxicity assay, LNCaP; assay type: cell-based; settings: LNCaP; for inhibition at 100 µM / inhibition at 10 µM / inhibition at 1 µM: Homo sapiens, read-out: Growth Inhibition %; for inhibition at 100 µM: 1 × 10^−4 M; for inhibition at 10 µM: 1 × 10^−5 M; for inhibition at 1 µM: 1 × 10^−6 M
# Description: The human prostate cancer LNCaP, PC-3, and DU-145 cell lines, as well as human fibroblast cell line, were obtained from the American Type Culture Collection (“ATCC”) and maintained in RPMI-1640, F-12k, and MEM mediums, respectively, supplemented with 10% FBS. Cell lines were maintained at 37° C. under a humidified atmosphere and 5% CO2 for testing of the cytotoxicity of betulinol derivatives. The cytotoxicity assay was performed using MTT assay according to the instructions of ATCC protocol. Cells 1×10^5 in 0.1 ml/well were plated in 96-well culture plates (Costar) and incubated with a different dilution of betulinol derivatives for 24, 48, and 72 hours. Ten μl of 3-[4,5-dimethylthiazol-2-yl]-2,5 diphenyl tetrazolium bromide was added into each well at the end of each incubation period. The reaction product, formazan, was dissolved in the detergent, and the absorbance was read at 540 nm (Ref).
# (§1) However, these compounds were not tested on prostate cancer LNCaP cell line by NCI. […] The anti-tumor activity of the compounds was determined at three doses and the total growth inhibition kill effect as pertinent of the control at 24, 48, and 72 hours as presented in Table 11.
# Bladder cancer cells = settings: 1 × 10^−4 M; Bladder (1), cell line not given
# MCF7 = assay: In vitro cytotoxicity, Breast (2), MCF7; assay type: cell-based, human
# SF-268 = assay: In vitro cytotoxicity, CNS (2), SF-268; assay type: cell-based, human
# [3] = tested on: different human tumor cell lines; assay: In vitro cell toxicity test by NCI, tumor cell line panel; assay type: cell-based; settings: tested by NCI; comparison among compounds 2, 3, 4 and 5
# NCI-H460 = assay: In vitro cytotoxicity, Lung (2), NCI-H460; assay type: cell-based, human
# OVACR-3 = assay: In vitro cytotoxicity, Ovarian (2), OVACR-3; assay type: cell-based, human
# Description: as §1
# U251 = assay: In vitro cytotoxicity, CNS (2), U251; assay type: cell-based, human
# DU-145 = assay: In vitro cytotoxicity, Prostate (2), DU-145; assay type: cell-based, human
# RXF 393 = assay: In vitro cytotoxicity, Renal (2), RXF 393; assay type: cell-based, human
# OVCAR-5 = assay: In vitro cytotoxicity, Ovarian (2), OVCAR-5; assay type: cell-based, human
# Description: as §1
# PC-3 = assay: In vitro cytotoxicity, Prostate (2), PC-3; assay type: cell-based, human
# T-47d = assay: In vitro cytotoxicity, Breast (2), T-47d; assay type: cell-based, human
# HOP-92 = assay: In vitro cytotoxicity, Lung (2), HOP-92; assay type: cell-based, human
# Description: as §1
# TK-10 = assay: In vitro cytotoxicity, Renal (2), TK-10; assay type: cell-based, human
# Description: as §1
# NCI-H322M = assay: In vitro cytotoxicity, Lung (2), NCI-H322M; assay type: cell-based, human
# Description: as §1
# CAKI-1 = assay: In vitro cytotoxicity, Renal (2), CAKI-1; assay type: cell-based, human
# Description: as §1
# MALME-3M = assay: In vitro cytotoxicity, Melanoma (2), MALME-3M; assay type: cell-based, human
# 184B5/HER = assay: In vitro cytotoxicity, Breast (1), 184B5/HER; assay type: cell-based; settings: 1 × 10^−4 M
# [4] = Tolerability of solubilized drug in mice with prostate cancer cell xenografts; assay type: in vivo; settings: final concentration of 22% ethanol and 2×10^−3 mol per liter of betulonic acid
# Description: In the present experiment, twelve male athymic mice were utilized. Seven to ten million cells, from a prostate cancer LNCaP cell line culture, were suspended homogenously in a Matrigel basement membrane matrix and transplanted in mice as xenografts. Tumors were visible within a week. […] Control groups of mice were also injected daily with a solution containing 22% ethanol in phosphate buffer solution (PBS) containing 4% albumin for a duration of 24 days. […] The volume of the tumors was determined daily using a caliper in order to observe any change in the tumor volume (FIG. 12), calculated according to the formula π/6(1×w×h). Mice were sacrificed by CO2 asphyxiation on day 24 after the first injection (FIGS. 13A-D). Total percent increase in tumor volume in drug treated and control groups was assessed (FIG. 14).
# [5] = Solubility in DMSO diluted with culture medium (GC)
# Description: The residue was dissolved in chloroform analyzed on GC.
# Ethyl ether was then evaporated. […] Concentration of drug in the above solutions was analyzed by GC and determined from the standard solubility curve.
smiles,measurement,setting,value
"C=C(C)[C@@H]1CC[C@]2(C(=O)O)CC[C@]3(C)[C@H](CC[C@@H]4[C@@]5(C)CC[C@H](O)C(C)(C)[C@@H]5CC[C@]43C)[C@@H]12 [Compound 2, Betulinic Acid]",LD 50,[1],0.375 mg/mL
same,Growth Inhibition %,"[2]; 24 hours, 2.5 × 10^−5 (M)",41.0%
same,Growth Inhibition %,"[2]; 24 hours, 2.5 × 10^−6 (M)",24.6%
same,Growth Inhibition %,"[2]; 24 hours, 2.5 × 10^−7 (M)",11.72%
same,Growth Inhibition %,"[2]; 48 hours, 2.5 × 10^−5 (M)",73.3%
same,Growth Inhibition %,"[2]; 48 hours, 2.5 × 10^−6 (M)",69.4%
same,Growth Inhibition %,"[2]; 48 hours, 2.5 × 10^−7 (M)",62.8%
"C=C(C)[C@@H]1CC[C@]2(C=O)CC[C@]3(C)[C@H](CC[C@@H]4[C@@]5(C)CC[C@H](O)C(C)(C)[C@@H]5CC[C@]43C)[C@@H]12 [Compound 3, Betulin Aldehyde]",Growth Inhibition %,"[2]; 24 hours, 2.5 × 10^−5 (M)",29.5%
same,Growth Inhibition %,"[2]; 24 hours, 2.5 × 10^−6 (M)",11.0%
same,Growth Inhibition %,"[2]; 24 hours, 2.5 × 10^−7 (M)",6.34%
same,Growth Inhibition %,"[2]; 48 hours, 2.5 × 10^−5 (M)",72.3%
same,Growth Inhibition %,"[2]; 48 hours, 2.5 × 10^−6 (M)",40.9%
same,Growth Inhibition %,"[2]; 48 hours, 2.5 × 10^−7 (M)",27.6%
"C=C(C)C1CCC2(C=O)CCC3(C)C(CCC4C5(C)CCC(=O)C(C)(C)C5CCC43C)C12 (stereo not shown) [Compound 5, Betulon Aldehyde]",Percent Killed,Bladder cancer cells,29%
same,Percent Killed,MCF7; 1 × 10^−4 M,68%
same,Percent Killed,SF-268; 1 × 10^−4 M,27%
same,cell growth inhibitory properties against different human tumor cell lines,[3],most effective inhibition of cell growth without selective activity
same,Percent Killed,NCI-H460; 1 × 10^−4 M,89%
"C=C(C)[C@@H]1CC[C@]2(COC(C)=O)CC[C@]3(C)[C@H](CC[C@@H]4[C@@]5(C)CC[C@H](OC(C)=O)C(C)(C)[C@@H]5CC[C@]43C)[C@@H]12 [Compound 6, Betulin Diacetate]",Percent Killed,OVACR-3; 1 × 10^−4 M,100%
same,Percent Killed,OVACR-3; 1 × 10^−5 M,100%
same,Percent Killed,OVACR-3; 1 × 10^−6 M,96%
same,Percent Killed,U251; 1 × 10^−4 M,100%
same,Percent Killed,U251; 1 × 10^−5 M,100%
same,Percent Killed,U251; 1 × 10^−6 M,100%
same,Percent Killed,U251; 1 × 10^−7 M,100%
same,Percent Killed,DU-145; 1 × 10^−4 M,100%
same,Percent Killed,DU-145; 1 × 10^−5 M,100%
same,Percent Killed,DU-145; 1 × 10^−6 M,100%
same,Percent Killed,DU-145; 1 × 10^−7 M,100%
same,Percent Killed,DU-145; 1 × 10^−8 M,27%
same,Percent Killed,RXF 393; 1 × 10^−4 M,100%
same,Percent Killed,RXF 393; 1 × 10^−5 M,100%
same,Percent Killed,RXF 393; 1 × 10^−6 M,100%
same,Percent Killed,RXF 393; 1 × 10^−7 M,97%
same,Percent Killed,RXF 393; 1 × 10^−8 M,15%
same,Percent Killed,OVCAR-5; 1 × 10^−4 M,100%
same,Percent Killed,OVCAR-5; 1 × 10^−5 M,100%
same,Percent Killed,OVCAR-5; 1 × 10^−6 M,100%
same,Percent Killed,MCF7; 1 × 10^−4 M,100%
same,Percent Killed,MCF7; 1 × 10^−5 M,100%
same,Percent Killed,MCF7; 1 × 10^−6 M,100%
same,Percent Killed,MCF7; 1 × 10^−7 M,100%
same,Percent Killed,PC-3; 1 × 10^−4 M,25%
same,Percent Killed,PC-3; 1 × 10^−5 M,15%
same,Percent Killed,T-47d; 1 × 10^−4 M,100%
same,Percent Killed,T-47d; 1 × 10^−5 M,100%
same,Percent Killed,T-47d; 1 × 10^−6 M,100%
same,Percent Killed,T-47d; 1 × 10^−7 M,23%
same,Percent Killed,HOP-92; 1 × 10^−4 M,100%
same,Percent Killed,HOP-92; 1 × 10^−5 M,100%
same,Percent Killed,HOP-92; 1 × 10^−6 M,100%
same,Percent Killed,SF-268; 1 × 10^−4 M,100%
same,Percent Killed,SF-268; 1 × 10^−5 M,100%
same,Percent Killed,SF-268; 1 × 10^−6 M,100%
same,Percent Killed,SF-268; 1 × 10^−7 M,75%
same,Percent Killed,SF-268; 1 × 10^−8 M,15%
same,Percent Killed,TK-10; 1 × 10^−4 M,100%
same,Percent Killed,TK-10; 1 × 10^−5 M,100%
same,Percent Killed,TK-10; 1 × 10^−6 M,49%
same,Percent Killed,NCI-H322M; 1 × 10^−4 M,100%
same,Percent Killed,NCI-H322M; 1 × 10^−5 M,100%
same,Percent Killed,NCI-H322M; 1 × 10^−6 M,100%
same,Percent Killed,CAKI-1; 1 × 10^−4 M,100%
same,Percent Killed,CAKI-1; 1 × 10^−5 M,100%
same,Percent Killed,CAKI-1; 1 × 10^−6 M,100%
same,Percent Killed,NCI-H460; 1 × 10^−4 M,100%
same,Percent Killed,NCI-H460; 1 × 10^−5 M,100%
same,Percent Killed,NCI-H460; 1 × 10^−6 M,100%
same,Percent Killed,NCI-H460; 1 × 10^−7 M,25%
same,Percent Killed,MALME-3M; 1 × 10^−4 M,100%
same,Percent Killed,MALME-3M; 1 × 10^−5 M,100%
same,Percent Killed,MALME-3M; 1 × 10^−6 M,100%
same,Percent Killed,MALME-3M; 1 × 10^−7 M,100%
same,Percent Killed,MALME-3M; 1 × 10^−8 M,98%
C=C(C)C1CCC2(C(=O)NCCCCC(NC(=O)OC(C)(C)C)C(=O)OC)CC[C@]3(C)[C@H](CC[C@@H]4[C@@]5(C)CCC(=O)C(C)(C)[C@@H]5CC[C@]43C)C12 (stereo partly shown) [Monomer],inhibition at 100 µM,"[2]; 24 h, 24 hours",76.5 ± 22.6%
same,inhibition at 10 µM,"[2]; 24 h, 24 hours",19 ± 14.4%
same,inhibition at 1 µM,"[2]; 24 h, 24 hours",5.5 ± 7.32%
same,inhibition at 100 µM,"[2]; 48 h, 48 hours",~80%
same,inhibition at 10 µM,"[2]; 48 h, 48 hours",36.8%
same,inhibition at 1 µM,"[2]; 48 h, 48 hours",15 ± 11.2%
same,inhibition at 100 µM,"[2]; 72 h, 72 hours",79.2 ± 16.5%
same,inhibition at 10 µM,"[2]; 72 h, 72 hours",40.5 ± 33.6%
same,inhibition at 1 µM,"[2]; 72 h, 72 hours",17.2 ± 32.5%
"C=C(C)[C@@H]1CC[C@]2(CO)CC[C@]3(C)[C@H](CC[C@@H]4[C@@]5(C)CC[C@H](OC(C)=O)C(C)(C)[C@@H]5CC[C@]43C)[C@@H]12 [Compound 8, 3-Acetoxy Betulin]",Growth Inhibition %,"[2]; 24 hours, 2.5 × 10^−5 (M)",12.4%
same,Growth Inhibition %,"[2]; 24 hours, 2.5 × 10^−6 (M)",10.4%
same,Growth Inhibition %,"[2]; 24 hours, 2.5 × 10^−7 (M)",0%
same,Growth Inhibition %,"[2]; 48 hours, 2.5 × 10^−5 (M)",28.3%
same,Growth Inhibition %,"[2]; 48 hours, 2.5 × 10^−6 (M)",44.7%
same,Growth Inhibition %,"[2]; 48 hours, 2.5 × 10^−7 (M)",17.4%
"C=C(C)C1CCC2(COC)CCC3(C)C(CCC4C5(C)CCC(OC)C(C)(C)C5CCC43C)C12 (stereo not shown) [Compound 7, Betulin Dimethyl ether (Cornelon)]",Percent Killed,184B5/HER,Toxic
same,Percent Killed,Bladder cancer cells,30%
same,Percent Killed,MCF7; 1 × 10^−4 M,97%
same,Percent Killed,SF-268; 1 × 10^−4 M,100%
same,Percent Killed,NCI-H460; 1 × 10^−4 M,80%
C=C(C)C1CCC2(C(=O)NCCCCC(NC(=O)OC(C)(C)C)C(=O)O)CC[C@]3(C)[C@H](CC[C@@H]4[C@@]5(C)CCC(=O)C(C)(C)[C@@H]5CC[C@]43C)C12 (stereo partly shown) [Monomer-Boc],tolerability in mice,[4],well tolerated
same,Concentration of drug (mg/mL),[5],0.7 mg/mL
same,Concentration of drug (mol/L),[5],0.001 mol/L
